Patent publication US7410974B2, “Halogenated Quinazolinyl nitrofurans as antibacterial agents” (Ulysses Pharmaceutical Products, Inc., priority 2003, dated 2008)
Values after ≈ are worked out from the molar mass of the structure shown. Read-outs that look alike come from different tables or passages of the source.

Key:
MRSA strain Sa224c = experiment: MIC broth microdilution, antibiotic resistant strain panel; assay type: cell-based, Staphylococcus aureus; settings: Staphylococcus aureus; multi-resistant MRSA strain Sa224c; read-out: MIC
In short: (§1)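 Inocula of 10^5-10^6 CFU/ml were checked by colony counts, and out-of-range runs were rejected. Test compounds underwent serial 2-fold dilution in cation-adjusted Mueller Hinton broth and were incubated for 24 h at 35° C. The MIC was the lowest concentration without visible growth.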

MRSA strain Sa248c = experiment: as above; assay type: cell-based, Staphylococcus aureus; settings: Staphylococcus aureus; multi-resistant MRSA strain Sa248c; read-out: MIC
In short: as §1

MRSA strain Sa253c = experiment: as above; assay type: cell-based, Staphylococcus aureus; settings: Staphylococcus aureus; multi-resistant MRSA strain Sa253c; read-out: MIC
In short: as §1

MRSA strain Sa234c = experiment: as above; assay type: cell-based, Staphylococcus aureus; settings: Staphylococcus aureus; multi-resistant MRSA strain Sa234c; read-out: MIC
In short: as §1

MRSA strain Sa228c = experiment: as above; assay type: cell-based, Staphylococcus aureus; settings: Staphylococcus aureus; multi-resistant MRSA strain Sa228c; read-out: MIC
In short: as §1

MRSA strain Sa220c = experiment: as above; assay type: cell-based, Staphylococcus aureus; settings: Staphylococcus aureus; multi-resistant MRSA strain Sa220c; read-out: MIC
In short: as §1

MRSA strain Sa249c = experiment: as above; assay type: cell-based, Staphylococcus aureus; settings: Staphylococcus aureus; multi-resistant MRSA strain Sa249c; read-out: MIC
In short: as §1

MRSA strain Sa212c = experiment: as above; assay type: cell-based, Staphylococcus aureus; settings: Staphylococcus aureus; multi-resistant MRSA strain Sa212c; read-out: MIC
In short: as §1

MRSA strain Sa211c = experiment: as above; assay type: cell-based, Staphylococcus aureus; settings: Staphylococcus aureus; multi-resistant MRSA strain Sa211c; read-out: MIC
In short: as §1

S. aureus ATCC 29213 = experiment: MIC broth microdilution (NCCLS); assay type: cell-based, Staphylococcus aureus; settings: Staphylococcus aureus, ATCC29213; S. aureus ATCC 29213; read-out: MIC
E. coli ATCC 25922 = experiment: MIC broth microdilution (NCCLS); assay type: cell-based, Escherichia coli
[1] = tested on: S. saprophyticus ATCC 15305; experiment: MIC broth microdilution (NCCLS); assay type: cell-based, Staphylococcus saprophyticus; settings: Staphylococcus saprophyticus, ATCC15305; S. saprophyticus ATCC 15305; read-out: MIC
In short: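 NCCLS broth microdilution; inoculum 10^5-10^6 CFU/ml; 2-fold serial dilutions; 35° C, 24 h; A650 plus visual read. Media: MHBCA (S. saprophyticus, E. faecium), MHBCA + 2% laked horse blood (Listeria), HTM (Haemophilus), the last two under 5% CO2.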

E. coli Ec117c (EIEC) = experiment: MIC broth microdilution, E. coli strains; assay type: cell-based; settings: Escherichia coli, pathotype EIEC
Experimental: (§2) Minimal Inhibitory Concentration (MIC) Determination. Bacteria (primary strain panel, TABLE 1). Susceptibility tests were performed following the recommendations from the National Committee for Clinical Standards (NCCLS). The MICs were determined by a broth microdilution technique using a final volume of 100 μl of cation-adjusted Mueller Hinton Broth (MHBCA) and a bacterial inoculum of 10^5-10^6 Colony Forming Units (CFU)/ml. The inocula were verified and precisely determined by applying 10-μl drops of 10-fold dilutions onto Triptic Soy Agar plates. The CFU were counted after an incubation of 24 h at 35° C. Any experiment showing an inoculum that was more or less than 10^5-10^6 CFU/ml was rejected. Control antibiotics and test compounds were prepared at a concentration equivalent to 2-fold the highest desired final concentration. Compounds were then diluted directly in the 96-well microtiter plates by serial 2-fold dilutions using a multichannel pipette. Microtiter plates were incubated during 24 h at 35° C. and growth was recorded by using a microtiterplate reader at 650 nm as well as by visual observation. The MIC was defined as the lowest concentration of compound yielding no visible growth. […] Fastidious bacteria. The medium used for Listeria monocytogenes, Neisseria meningitidis, and Campylobacter jejuni was MHBCA containing 2% laked horse blood. The medium used for Haemophilus influenzae and Branhamella (Moraxella) catarrhalis was HTM as recommended by the NCCLS. Cultures of these fastidious bacteria were incubated at 35° C. in a 5% CO2 atmosphere. […] The medium used for Bacteroides fragilis was Wilkins Chalgren broth and growth was allowed under an anaerobic atmosphere at 35° C. for 48 hours.
(§3) Finally, compounds were also tested against populations of various clinical strains (antibiotic resistant strain panel, TABLE 1).

E. coli Ec027c (EIEC) = experiment: MIC broth microdilution, E. coli strains; assay type: cell-based; settings: Escherichia coli, pathotype EIEC
Experimental: as §2, §3

E. coli Ec119c (EIEC) = experiment: MIC broth microdilution, E. coli strains; assay type: cell-based; settings: Escherichia coli, pathotype EIEC
Experimental: as §2, §3

[2] = tested on: E. coli d4-OLR-pen10 (O157:H7); experiment: MIC broth microdilution, E. coli strains; assay type: cell-based; settings: Escherichia coli
Experimental: as §2, §3

E. coli Ec118c (EIEC) = experiment: MIC broth microdilution, E. coli strains; assay type: cell-based; settings: Escherichia coli, pathotype EIEC
Experimental: as §2, §3

[3] = tested on: E. coli d25-ALR-pen14 (O157:H7); experiment: MIC broth microdilution, E. coli strains; assay type: cell-based; settings: Escherichia coli
Experimental: as §2, §3

E. coli Ec022c (EIEC) = experiment: MIC broth microdilution, E. coli strains; assay type: cell-based; settings: Escherichia coli, pathotype EIEC
Experimental: as §2, §3

[4] = tested on: E. coli ATCC 35150 (O157:H7); experiment: MIC broth microdilution, E. coli strains; assay type: cell-based; settings: Escherichia coli, ATCC35150
Experimental: as §2, §3

S. typhimurium ATCC14028 = experiment: MIC broth microdilution (NCCLS); assay type: cell-based, Salmonella typhimurium; settings: Salmonella enterica; S. typhimurium ATCC14028; read-out: MIC
Experimental: as §2

[5] = Escherichia coli, ATCC25922, E. coli ATCC 25922 (Reference), read-out: MIC

In the case of O=C1CN(/N=C/c2ccc([N+](=O)[O-])o2)C(=O)N1 [Nitrofurantoin], the MIC (MRSA strain Sa224c) is reported as 16 µg/mL (≈ 67.2 µM), the MIC (MRSA strain Sa248c) is reported as 16 µg/mL (≈ 67.2 µM) and the MIC (MRSA strain Sa253c) is reported as 16 µg/mL (≈ 67.2 µM). The MIC (MRSA strain Sa234c) was 16 to 32 µg/mL (≈ 67.2 to 134 µM), the MIC (MRSA strain Sa228c) was 16 to 32 µg/mL (≈ 67.2 to 134 µM) and the MIC (MRSA strain Sa220c) was 16 µg/mL (≈ 67.2 µM). For the same compound, the MIC (MRSA strain Sa249c) was 16 µg/mL (≈ 67.2 µM), the MIC (MRSA strain Sa212c) was 32 µg/mL (≈ 134 µM) and the MIC (MRSA strain Sa211c) was 16 to 32 µg/mL (≈ 67.2 to 134 µM). For the same compound, the MIC (S. aureus ATCC 29213) was 16 µg/mL (≈ 67.2 µM), the MIC (E. coli ATCC 25922; E. coli ATCC 25922 (Reference)) was 8 to 16 µg/mL and the MIC (E. coli ATCC 25922; [5]) was 8 µg/mL (≈ 33.6 µM). It also gave an MIC [1] of 8 µg/mL (≈ 33.6 µM), an MIC (E. coli Ec117c (EIEC)) of 8 to 16 µg/mL (≈ 33.6 to 67.2 µM) and an MIC (E. coli Ec027c (EIEC)) of 16 µg/mL (≈ 67.2 µM). It also gave an MIC (E. coli Ec119c (EIEC)) of 16 µg/mL (≈ 67.2 µM), an MIC [2] of 16 µg/mL (≈ 67.2 µM) and an MIC (E. coli Ec118c (EIEC)) of 16 µg/mL (≈ 67.2 µM). The MIC [3] was 16 µg/mL (≈ 67.2 µM), the MIC (E. coli Ec022c (EIEC)) was 16 µg/mL (≈ 67.2 µM) and the MIC [4] was 2 µg/mL (≈ 8.4 µM). It also gave an MIC (S. typhimurium ATCC14028) of 32 µg/mL (≈ 134 µM).

O=[N+]([O-])c1ccc(C=Cc2nc(Nc3ccc(O)cc3)c3cc(F)ccc3n2)o1 [Compound V, 6-fluoro-2-[2-(5-nitro-2-furyl)vinyl]-4-(p-hydroxyanilino)-quinazoline] gave an MIC (MRSA strain Sa224c) of at most 0.06 µg/mL, an MIC (MRSA strain Sa248c) of at most 0.06 µg/mL and an MIC (MRSA strain Sa253c) of at most 0.06 µg/mL. For the same compound, the MIC (MRSA strain Sa234c) was at most 0.06 µg/mL, the MIC (MRSA strain Sa228c) was at most 0.06 µg/mL and the MIC (MRSA strain Sa220c) was at most 0.06 µg/mL. For the same compound, the MIC (MRSA strain Sa249c) was at most 0.06 µg/mL, the MIC (MRSA strain Sa212c) was 0.125 µg/mL (≈ 0.319 µM) and the MIC (MRSA strain Sa211c) was at most 0.06 µg/mL. The MIC (S. aureus ATCC 29213) was 0.03 to 0.06 µg/mL (≈ 0.0765 to 0.153 µM), the MIC (E. coli ATCC 25922; E. coli ATCC 25922 (Reference), listed as Example I compound V) was 0.5 µg/mL (≈ 1.27 µM) and the MIC (E. coli ATCC 25922; [5]) was 0.5 µg/mL (≈ 1.27 µM). For the same compound, the MIC [1] was 0.015 to 0.03 µg/mL (≈ 0.0382 to 0.0765 µM), the MIC (E. coli Ec117c (EIEC)) was 1 µg/mL (≈ 2.55 µM) and the MIC (E. coli Ec027c (EIEC)) was 1 µg/mL (≈ 2.55 µM). The MIC (E. coli Ec119c (EIEC)) was 2 µg/mL (≈ 5.1 µM), the MIC [2] was 1 µg/mL (≈ 2.55 µM) and the MIC (E. coli Ec118c (EIEC)) was 1 µg/mL (≈ 2.55 µM). It also gave an MIC [3] of 1 µg/mL (≈ 2.55 µM), an MIC (E. coli Ec022c (EIEC)) of 1 µg/mL (≈ 2.55 µM) and an MIC [4] of 1 µg/mL (≈ 2.55 µM). The MIC (S. typhimurium ATCC14028) was 1 µg/mL (≈ 2.55 µM).
